US5783557A, “THF-γ2 analogs and pharmaceutical compositions comprising them” (Yeda Research and Development Company Ltd at Weizmann …, priority 1993, dated 1998)
No end group written: not given here. *: point of attachment. iodo = iodine substituent on Tyr (iodo-Tyr), I*

How the values were obtained:
[1] = test system: mouse spleen cells; experiment: ConA-induced IL-2 production; format: cell-based; parameters: key: +++: strong enhancement, as THF-γ2; ++ and +: medium and weak enhancement, lower than THF-γ2; ++ and +: medium and weak enhancement, lower than THF-γ2; --no activity; details: graded against THF-γ2; Example 1, section 1.1
Experimental: 1.1. ConA-Induced IL-2 Production
In this bioassay, the effect of THF-γ2 and its analogs in enhancing the secretion of ConA-induced IL-2 from murine spleen cells is determined.
1.1.1. Preparation of cells and preincubation with THF-γ2. Pooled spleen cells (10^7 cell/ml) from five female C3B6F1 (C3HeB/FeJ×C57BL/6J) mice (obtained from Jackson Labs, U.S.A.) aged 6-8 weeks are seeded in 24-well plates (Costar, Cambridge, Mass, U.S.A.). The cells are prepared in medium RPMI-1640 supplemented with penicillin (100 u/ml), streptomycin (100 μg/ml), 2 mM glutamine, 50 μM 2-mercaptoethanol (2-ME) and 20 mM HEPES. THF-γ2 in various concentrations in phosphate buffered saline (PBS), is added in 20 μl aliquots, while control cultures receive 20 μl PBS. The cell cultures are incubated for 20 h in a humidified incubator of 5% CO2 /95% air and 37° C.
1.1.2. Induction of IL-2. ConA (Concanavalin A, ConA, 3×crystalline, Bio-Makor, Ness-Ziona, Israel) is added to the wells in 1 ml fresh medium (as in 1.1.1 above) at suboptimal concentration (1-2.5 μ/ml). […]
1.1.3. […] After incubation of 48 h at 37° C./5% CO2, the proliferation is assessed by the MTT colorimetric assay (T. Mosmann, J. Immunol. Methods 65: 55-63, 1983). Results are expressed in units/ml calculated using a standard murine IL-2 preparation (according to S. Gillis et al., J. Immunol. 120: 2027, 1978).

[2] = test system: GM-CFC from mouse bone marrow; experiment: Effect on GM-CFC from mouse bone marrow; format: cell-based; parameters: key: +++: strong enhancement, as THF-γ2; ++ and +: medium and weak enhancement, lower than THF-γ2; ++ and +: medium and weak enhancement, lower than THF-γ2; --no activity; details: graded against THF-γ2; Example 1, section 1.2
Experimental: 1.2. Effect of THF-γ2 on GM-CFC From Mouse Bone Marrow. In this second bioassay, the effect of THF-γ2 and its analogs in the enhancement of the number of colonies of GM-CFC in the presence of growth factors is determined. 1.2.1. […] Tibia and femur were removed from BALB/c female mice (6-8 weeks old). The tip of the bone was cut and DMEM with 2.5% FCS was flushed into the bone using a 1 ml syringe with a 26 G needle. This procedure was repeated twice, the cells were then washed in medium and counted in the presence of trypan blue. 1.2.2 Preincubation with THF-γ2. Bone marrow cells suspension was prepared in DMEM with 2.5% FCS at a concentration of 15×10^6 /3.0 ml. THFγ2 diluted in DMEM was added in 20 μl aliquots, control cells received 20 μl DMEM. Cell suspensions in conical tissue culture tubes were incubated at 37° C./8% CO2 for 1 h. Cells were then collected, washed and counted in trypan blue. Cell suspensions were adjusted at 1×10^6 /ml. 1.2.3. GM-CFC assay. Bone marrow cells (4×10^5) are suspended in methylcellulose (0.8%), FCS (20%) and conditioned medium of 14FIL3 CB6 cell line (5%) in a total volume of 4 ml of DMEM. After vigorous mixing, the suspension is seeded into 30 mm diameter plates with the aid of a 3.0 ml syringe (21G needle, in triplicate). […] Colonies are counted using an inverted microscope at low magnification.

[3] = test system: murine cytomegalovirus (MCMV); details: MCMV-infected mice; cited from earlier work
[4] = test system: patients with reduced circulating T cells; details: 4 ng/kg/day i.m., 18 injections in 3 weeks; cited from earlier work
[5] = test system: viral infections of the herpes group; details: four patients, same protocol as the pilot study; cited from earlier work

Substance	IL-2: Enhancement of ConA induced IL2 production in mouse spleen cells [1]	GM-CFC: Enhancement of the number of GMCFC from mouse bone marrow [2]	interferon synthesis and NK cytotoxicity [3]	side effects [4]	side effects [5]
Iodo-Tyr-Leu-Glu-Asp-Gly-Pro-Lys-Phe-Leu (Y(iodo)LEDGPKFL) [iodo-Y^-1 -THF-γ2]	++	-			
LEDGPKFL [THF-γ2, Leu-Glu-Asp-Gly-Pro-Lys-Phe-Leu]			did not affect	No side effects attributable to synthetic THF-γ2 were observed	no deleterious side effects were documented
